According to the supplement of paper PMC11208160:
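Note: IS621 bridge recombinase in Escherichia coli cells against a fixed T5 target plasmid.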

Assay: recombinant UMI read abundance after kanamycin selection (control-corrected) (log10(CPM+1)); higher = more efficient recombination; extreme values may be limits of the assay; sequences stand for … in AGTGCAGAGAAAATCGGCCAGTTTTCTCTGCCTGCAGTCCGCATGCCGTGGGACCCCTTGGGTTCTAACCTGTTGCCTAGATTTATGCAGCGGACTGCCTTTCTCCCAAAGTGATAAACCGG…AGGTTGGTTTCACT; site = the 11-nt donor
How it was run: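 Reported values are log10(CPM+1) from a pooled Escherichia coli screen of donor and donor-binding-loop pairs for the IS621 bridge recombinase. Selection used IPTG (0.07 mM) plus kanamycin, against unselected plating, each in two replicates. Recombinant UMIs were amplified across the donor–target junction, sequenced, converted to CPM, averaged over replicates and scaled by control-derived factors.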
In the case of “TAGAATACATGGACCGGTTTTCCCGGTAATCCGTATTTGCA (site TAGAAAACTTG)”, the “recombinant UMI read abundance (log10)” value is reported as 0.00693.
For “TAGAATACATGGACCGGTTTTCCCGGTAATCCGTATTTGCA (site TAGAACACTTG)”, the “recombinant UMI read abundance (log10)” value was 0.
With “TAGAATACATGGACCGGTTTTCCCGGTAATCCGTATTTGCA (site TAGAAGACTTG)” the “recombinant UMI read abundance (log10)” value was 0.00484.
In the case of “TAGAATACATGGACCGGTTTTCCCGGTAATCCGTATTTGCA (site TAGAATACTAG)”, the “recombinant UMI read abundance (log10)” value is reported as 0.
In the case of “TAGAATACATGGACCGGTTTTCCCGGTAATCCGTATTTGCA (site TAGAATACTCG)”, the “recombinant UMI read abundance (log10)” value is reported as 0.
For “TAGAATACATGGACCGGTTTTCCCGGTAATCCGTATTTGCA (site TAGAATACTGG)”, the “recombinant UMI read abundance (log10)” value was 0.
For “TAGAATACATGGACCGGTTTTCCCGGTAATCCGTATTTGCA (site TAGAATACTTA)”, the “recombinant UMI read abundance (log10)” value was 0.
With “TAGAATACATGGACCGGTTTTCCCGGTAATCCGTATTTGCA (site TAGAATACTTC)” the “recombinant UMI read abundance (log10)” value was 0.0185.
For “TAGAATACATGGACCGGTTTTCCCGGTAATCCGTATTTGCA (site TAGAATACTTG)”, the “recombinant UMI read abundance (log10)” value was 2.18.
With “TAGAATACATGGACCGGTTTTCCCGGTAATCCGTATTTGCA (site TAGAATACTTT)” the “recombinant UMI read abundance (log10)” value was 0.
In the case of “TAGAATACATGGACCGGTTTTCCCGGTAATCCGTATTTGCA (site TAGAATCCTTG)”, the “recombinant UMI read abundance (log10)” value is reported as 0.
With “TAGAATACATGGACCGGTTTTCCCGGTAATCCGTATTTGCA (site TAGAATGCTTG)” the “recombinant UMI read abundance (log10)” value was 0.
For “TAGAATACATGGACCGGTTTTCCCGGTAATCCGTATTTGCA (site TAGAATTCTTG)”, the “recombinant UMI read abundance (log10)” value was 0.
For “TAGAATACATGGACCGGTTTTCCCGGTAATCCGTATTTGCA (site TAGACTACTTG)”, the “recombinant UMI read abundance (log10)” value was 0.486.
For “TAGAATACATGGACCGGTTTTCCCGGTAATCCGTATTTGCA (site TAGAGTACTTG)”, the “recombinant UMI read abundance (log10)” value was 0.446.
For “TAGAATACATGGACCGGTTTTCCCGGTAATCCGTATTTGCA (site TAGATTACTTG)”, the “recombinant UMI read abundance (log10)” value was 0.00714.
In the case of “TAGAATACATGGACCGGTTTTCCCGGTAATCCGTATTTGCA (site TAGCATACTTG)”, the “recombinant UMI read abundance (log10)” value is reported as 0.783.
With “TAGAATACATGGACCGGTTTTCCCGGTAATCCGTATTTGCA (site TAGGATACTTG)” the “recombinant UMI read abundance (log10)” value was 1.71.
For “TAGAATACATGGACCGGTTTTCCCGGTAATCCGTATTTGCA (site TAGTATACTTG)”, the “recombinant UMI read abundance (log10)” value was 1.34.
With “TAGAATACATGGACCGGTTTTCCCGGTAATCCGTATTTGCA (site TATAATACTTG)” the “recombinant UMI read abundance (log10)” value was 0.633.
With “TAGAATACATGGACCGGTTTTCCCGGTAATCCGTATTTGCA (site TCGAATACTTG)” the “recombinant UMI read abundance (log10)” value was 0.00888.
With “TAGAATACATGGACCGGTTTTCCCGGTAATCCGTATTTGCA (site TGGAATACTTG)” the “recombinant UMI read abundance (log10)” value was 0.
For “TAGAATACATGGACCGGTTTTCCCGGTAATCCGTATTTGCA (site TTGAATACTTG)”, the “recombinant UMI read abundance (log10)” value was 0.27.
In the case of “TAGACTTCATGGACCGGTTTTCCCGGTAATCCGTATTTGGT (site TAGACTTCTAC)”, the “recombinant UMI read abundance (log10)” value is reported as 1.64.
For “TAGACTTCATGGACCGGTTTTCCCGGTAATCCGTATTTGGT (site TAGCCTTCTAC)”, the “recombinant UMI read abundance (log10)” value was 0.0272.
For “TAGACTTCATGGACCGGTTTTCCCGGTAATCCGTATTTGGT (site TAGGCTTCTAC)”, the “recombinant UMI read abundance (log10)” value was 0.329.
With “TAGACTTCATGGACCGGTTTTCCCGGTAATCCGTATTTGGT (site TAGTCTTCTAC)” the “recombinant UMI read abundance (log10)” value was 0.175.
For “TAGAGAACATGGACCGGTTTTCCCGGTAATCCGTATTTGAG (site TAGAGAACTCT)”, the “recombinant UMI read abundance (log10)” value was 1.87.
With “TAGAGCCCATGGACCGGTTTTCCCGGTAATCCGTATTTGCG (site TAGAGCCCTCG)” the “recombinant UMI read abundance (log10)” value was 0.457.
